The test system of one assay is HeLa cells. As to the kind of experiment: Doxorubicin-induced G2M checkpoint abrogation HeLa cell-based Acumen assay (pHH3). As to conditions: 125 nM doxorubicin, 7 h compound. The method, then: An inhibitor of Chk1 will disable the G2M DNA damage checkpoint in p53-minus tumor cells treated with the topoisomerase II inhibitor, doxorubicin. A measurement of G2M checkpoint abrogation is the phosphorylation of histone H3 on serine 10 that occurs after cells traverse the G2M checkpoint and enter mitosis. The following high content imaging assay can be used to measure the phosphorylation histone H3 in cells. HeLa cells are cultured in MEM Media supplemented with 10% (v/v) FBS and plated at 2000 cells per well in poly D-lysine coated clear bottom black plates, 100 μL volume per well. Plates are then incubated in a cell culture incubator for 18-24 h (37° C., 5% CO2 and 95% relative humidity), Following the initial incubation, 20 μL of MEM Media plus 10% FBS containing […] doxorubicin are added to the appropriate wells of the plates resulting in a final concentration of 125 nM. The plates are returned to the incubator for 24 h, sufficient to arrest the cells at the G2M checkpoint. The next day the cells are treated 1.0 with compounds. Compounds are solubilized at […] in 100% DMSO and then diluted to a 10× stock starting at 50 μM in MEM plus 4% (v/v) DMSO. Subsequently, serial dilutions of the compounds (1:2) are prepared over a 50 μM to 0.39 μM range. Thirteen μL of compound stock is added to the appropriate wells in the plate to produce a final DMSO concentration of 0.4% and a final compound concentration range between 5 and 0.039 μM. […] Plates are scanned with ACUMEN EXPLORER™ Laser-scanning fluorescence microplate cytometers using 488 nm excitation (TTP LABTECH LTC) to measure pHH3 and DNA content including 2N, and 4N, The pHH3 positive cells are identified by mean intensity at 519 nm from Alexa 488. […] The final readout for each population is determined by normalizing to the % of total cells producing a final assay output of % pHH3, % 2N, and % 4N. 100% activity is then determined by treating cells with the maximum concentration of an inhibitor control compound at 100 nM to determine the final % activity of each compound. […]

Assay [1] has as its target recombinant Chk2 protein kinase (Homo sapiens, UniProt O96017). As to the kind of experiment: Chk2 biochemical assay (CHK2/substrate peptide filter binding). As to conditions: 60 μM ATP, 1.4 nM Chk2 enzyme. The method, then: The effect of compounds on Chk2 biochemical activity can be determined using a CHK2/substrate peptide filter binding assay. In this assay, a synthetic peptide based on the amino acid sequence residues 206-225 of Cdc25C, is used as a phospho-acceptor substrate for recombinant Chk2 protein kinase. Using γ-^33P-ATP as the phospho-donor substrate, Chk2 transfers the radioactive γ-^33phosphate group to the synthetic peptide. The reaction is measured by capturing the peptide substrate on a cation exchange paper filter plate and scintillation counting of emitted beta particles.
The kinase reactions (40 μL reaction volumes) are performed in 96-well V-bottom polystyrene plates. Reactions are initiated with the addition of Chk2 enzyme. […]
Following Chk2 enzyme addition, the reactions are incubated at room temperature for 90 min, and then terminated with the addition of 140 μL of phosphoric acid. […] After sitting for 4 h at room temperature, the radioactivity in the plate is measured using a MicroBeta Trilux microplate scintillation counter (Perkin Elmer).
For IC50 determination, the percent inhibition for each concentration is calculated using the […] from controls run on each plate. […] Absolute IC50 values are calculated from the resulting curve. […]

Assay [2] has as its system HT-29 colon carcinoma cells. As to the kind of experiment: ECtfs (two-fold sensitization) assay, gemcitabine potentiation, MTS. Type of assay: cell-based. Particulars: Homo sapiens, HT-29 cells. As for the experimental part: An inhibitor of Chk1 can potentiate the anti-proliferative activity of gemcitabine (or other cytotoxics) through abrogation of the intra-S phase checkpoint, resulting in sustained and increased DNA damage. The capacity for continued tumor cell proliferation after DNA damage can be analyzed by determining the ability of cells to replicate their DNA. […] In this assay, cells are treated with a dilution series of gemcitabine, and then 22 h later with the compound of Example 3, After an additional 44 h, the relative cell number is assessed by a MTS (3-(4,5-dimethylthiazol-2-yl)-5-(3-carboxymethoxyphenyl)-2-(4-sulfophenyl)-2H-tetrazolium) dye reduction assay. The ECtfs parameter is a measure of the concentration of a Chk1 inhibitor necessary to reduce by half the (1190 concentration of gemcitabine, measured in this assay in the absence of Chk1 inhibition. HT-29 cells (obtained from ATCC), are grown in RPMI 1640 plus 10% (v/v) heat inactivated FBS, The cells are plated at 2.5×10^3 per well, in a volume of 100 μL on 96-well tissue culture plates and incubated for 24 h. Gemcitabine dilutions are prepared at 6× concentrations in McCoy's 5A medium (modified) (1×) and added to wells at 20 μper well. Gemcitabine dilutions were set up with the highest final concentration of gemcitabine being 1.0 μM and dilutions made by three-fold steps to 0.5 nM.
Chk1 Inhibitor is prepared by dilutions in DMSO to 4000× final concentration, and then diluted 666-fold into McCoy's medium to generate 6× stocks. Chk1 inhibitor dilutions proceed by 2.5-fold steps starting at 25 nM down to 0.3 nM. Twenty-two hours 1.0 after gemcitabine addition, Chk1, inhibitor is added in a volume of 24 μL to wells containing 120 μL of medium plus gemcitabine. Each gemcitabine dilution receives a single Chk1 inhibitor dilution. Control wells received DMSO, gemcitabine, or Chk1 inhibitor alone. Forty-four hours after addition of Chk1 inhibitor, 30 μL of CellTiter 96® AQueous assay reagent, is added to each well and held at room temperature for 1 hour and 45 minutes. Absorbance is read on a SpectraMax 250 (Molecular Devices) spectrophotometer at 490 nm. Data from the SpectraMax spectrophotometer are analyzed with GraphPad Prism 4.0. First, an averaged no cell control absorbance is subtracted from all other values in the matrix of data from each plate. Next, duplicate data points are averaged. Data are normalized for each Chk1 inhibitor concentration, with 0% cell number set as corrected A490=0, and 100% cell number set as the 0 nM gemcitabine mean value. […] Gemcitabine concentrations are converted to log concentrations, and normalized cell number values are converted to percent inhibition (percent inhibition=1.00-normalized value). Transformed data are plotted, and a non-linear regression is run to estimate an IC50 value for gemcitabine at each Chk1 inhibitor concentration. The nonlinear regression is calculated allowing the slope to vary, and without constraints for the top or bottom of the dose-response curves. The ECtfs value is calculated as follows: GI50 values for gemcitabine for each Chk1 inhibitor concentration are determined, plotted, and the concentration of Chk1 inhibitor necessary to decrease the gemcitabine alone GI50 by two-fold is determined by interpolation.
Compounds within the scope of the invention are tested in this assay run substantially as above. For example, the compound of Example 3 is tested and found to have an ECtfs value of 1.0 nM (SE=0.1, n=3). […]

For assay [3], the system named is Calu-6 lung tumor xenograft. As to the kind of experiment: Calu-6 tumor xenograft model, subcutaneous administration of Chk1 inhibitor. As to conditions: Calu 6, gemcitabine 60 mpk ip alone. Type of assay: in vivo, nude mice. As for the experimental part: (§1) The ability of Chk1 inhibitors to potentiate tumor killing by DNA damaging agents can be determined in vivo using the Calu-6 lung and HT-29 colon tumor xenograft efficacy models. Calu-6 lung cancer cells are cultured in growth media (MEM with Earle's Balanced Salt Solution with L-glutamine supplemented with 10% (v/v) heat inactivated FBS, 1×MEM non-essential amino acids, 1× sodium pyruvate) and HT-29 colon cancer cells (ATCC) are cultured in growth media, (McCoy's 5A medium supplemented with 10% FBS) and expanded.
(§2) Cells are harvested and washed twice with phosphate buffered saline and 5×10^6 cells (HT-29) or 1×10^6 a cells (Calu-6) in growth media (without serum) are mixed with equal volume of BD Matrigel™ matrix, then injected subcutaneously into the flank of nude mice (CD-1 nu/nu).
(§3) At about day 16 after implant ([…]), gemcitabine is formulated fresh in saline daily and administered to animals by intraperitoneal route at 60 mg/kg dose. Twenty four hours later animals are administered the compound of Example 3, in 0.2% Tween-80/0.5% methylcellulose subcutaneously BID. After […], dosing is repeated for three additional cycles (Q4Dx4 with the compound of Example 3 offset+24 hours), Tumor growth inhibition (TGI) is calculated as the percent reduction in mean tumor size of a compound treated group from the mean tumor size of the vehicle-treated control group. Compounds within the scope of the invention are tested in this assay run substantially as above.

For assay [4], the system named is HT-29 colon tumor xenograft. As to the kind of experiment: HT-29 tumor xenograft model, oral administration of Chk1 inhibitor. In kind it is in vivo, nude mice. As to conditions: HT29, gemcitabine 40 mpk ip alone. As for the experimental part: as §1, §2
(§4) At about day 16 after implant (150-200 mm^3), gemcitabine is formulated fresh in saline daily and administered to animals by intraperitoneal route at 40 mg/kg dose. Twenty four hours later animals are administered Chk1 compound, in 0.2% Tween-80/0.5% methylcellulose by the oral route MD. After three days of rest, dosing was repeated for three additional cycles (Q5Dx4 with the compound of Example 3 offset+24 hours). Tumor growth inhibition (TGI) is calculated as described in the previous paragraph. Compounds within the scope of the invention are tested in this assay run substantially as above.

The test system of assay [5] is Calu-6 lung tumor xenograft. As to the kind of experiment: Calu-6 tumor xenograft model, oral administration of Chk1 inhibitor. As to conditions: Calu6, gemcitabine 40 mpk ip alone. Type of assay: in vivo, nude mice. The method, then: as §1, §2, §4
In assay [6] the test system is HT-29 colon tumor xenograft. As to the kind of experiment: HT-29 tumor xenograft model, subcutaneous administration of Chk1 inhibitor. Type of assay: in vivo, nude mice. Particulars: HT29, gemcitabine 60 mpk ip alone. The method, then:
as §1, §2, §3

Counter-ions that a name gives are not always drawn.

One may read the EC50 as the concentration that produces a half-maximal response. The term IC50 denotes the point on the concentration scale where inhibition reaches its midpoint.

recombinant Chk2 protein kinase, sequence (O96017 whole entry, the tested form may be a part): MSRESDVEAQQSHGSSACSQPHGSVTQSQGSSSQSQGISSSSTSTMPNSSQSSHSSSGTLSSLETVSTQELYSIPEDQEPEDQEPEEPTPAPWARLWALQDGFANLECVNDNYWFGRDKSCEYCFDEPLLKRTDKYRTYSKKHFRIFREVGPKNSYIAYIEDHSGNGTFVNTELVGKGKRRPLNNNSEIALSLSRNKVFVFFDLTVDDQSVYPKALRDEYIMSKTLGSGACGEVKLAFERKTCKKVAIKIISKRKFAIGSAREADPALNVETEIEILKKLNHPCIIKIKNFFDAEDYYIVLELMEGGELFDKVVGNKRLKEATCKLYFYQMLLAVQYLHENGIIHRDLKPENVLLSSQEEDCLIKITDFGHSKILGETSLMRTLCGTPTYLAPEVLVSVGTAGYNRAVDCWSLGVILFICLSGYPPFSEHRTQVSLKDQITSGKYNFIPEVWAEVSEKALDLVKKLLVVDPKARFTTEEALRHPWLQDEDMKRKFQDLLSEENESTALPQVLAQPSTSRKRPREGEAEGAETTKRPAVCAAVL

Turning to `COc1nc(C)ccc1-c1cc(Nc2cncc(O[C@@H]3CCCNC3)n2)[nH]n1` [Example 2, (R)-[5-(2-Methoxy-6-mcethyl-pyridin-3-yl)-2H-pyrazol-3-yl]-[6-(piperidin-3-yloxy)-pyrazin-2-yl]-amine methane sulfonic acid salt], the EC50 in the assay with HeLa cells was found to be 33 nM. In assay [1], the IC50 was determined as 12 nM.

For `Nc1ccn([C@@H]2O[C@H](CO)[C@@H](O)C2(F)F)c(=O)n1` [Gemcitabine, gemcitabine, reference compound], in assay [2] ([Example 3] 0 nM), the IC50 is 22 nM. For the same compound, the EC50 in assay [2] (gemcitabine alone) is 22 nM. Besides, the “% TGI at day 47” value in assay [3] is −41%. Also, the “% TGI at day 50” value in assay [4] is 25%. Besides, the “% TGI at day 37” value in assay [5] turned out to be 32%. Moreover, the “% TGI at day 38” value in assay [6] worked out at 11%.

Values taken from patent US9067920B2, “Compounds useful for inhibiting Chk1” (Eli Lilly and Company, priority 2010, dated 2015).
